Source: patent US6737383B1, “Herbicidal oxadiazolidines” (priority 1999, dated 2004)

Tests used:
purple nutsedge = assay: Test D purple nutsedge; format: in vivo, Cyperus rotundus; details: Preemergence, 0 to 100 scale
In short: (§1)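 Each weed species is planted in its own pot or compartment; preemergence doses go on the sandy loam surface within a day. The formulation is a surfactant-containing, non-phytotoxic solvent blend. Ratings come from visual comparison with untreated controls 14 to 21 days later, where 100 means complete control.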

Green foxtail [1] = assay: Test D green foxtail; format: in vivo; details: Preemergence, 0 to 100 scale
In short: as §1

Alexandergrass = assay: Test D Alexandergrass; format: in vivo, Brachiaria plantaginea; details: Preemergence, 0 to 100 scale
In short: as §1

sandbur = assay: Test D sandbur; format: in vivo, Cenchrus echinatus; details: Preemergence, 0 to 100 scale
In short: as §1

itchgrass = assay: Test D itchgrass; format: in vivo, Rottboellia exaltata; details: Preemergence, 0 to 100 scale
In short: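 Scoring used a 0–100 visual injury scale, with 0 meaning no effect and 100 complete control, assessed 14–21 days after application alongside untreated pots. Preemergence treatments went onto sandy loam surfaces of separately potted seeds within a day of sowing.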

Green foxtail [2] = assay: Test D green foxtail; format: in vivo
In short: as §1

Johnson grass = assay: Test D Johnson grass; format: in vivo, Sorghum halepense; details: Preemergence, 0 to 100 scale
In short: as §1

goosegrass = assay: Test D goosegrass; format: in vivo, Eleusine indica; details: Preemergence, 0 to 100 scale
In short: as §1

surinam grass = assay: Test D surinam grass; format: in vivo, Brachiaria decumbens; details: Preemergence, 0 to 100 scale
In short: as §1

tall mallow = assay: Test D tall mallow; format: in vivo, Malva sylvestris; details: Preemergence, 0 to 100 scale
In short: as §1

dallisgrass = assay: Test D dallisgrass; format: in vivo, Paspalum dilatatum; details: Preemergence, 0 to 100 scale
In short: as §1

pitted morningglory = assay: Test D pitted morningglory; format: in vivo, Ipomoea lacunosa; details: Preemergence, 0 to 100 scale
In short: as §1

large crabgrass = assay: Test D large crabgrass; format: in vivo, Digitaria sanguinalis; details: Preemergence, 0 to 100 scale
In short: as §1

common pursiane = assay: Test D common purslane; format: in vivo, Portulaca oleracea; details: Preemergence, 0 to 100 scale
In short: as §1

common groundsel = assay: Test D common groundsel; format: in vivo, Senecio vulgaris; details: Preemergence, 0 to 100 scale
In short: as §1

Spanishneedles = assay: Test D Spanishneedles; format: in vivo, Bidens bipinnata; details: Preemergence, 0 to 100 scale
In short: as §1

guineagrass = assay: Test D guineagrass; format: in vivo, Panicum maximum; details: Preemergence, 0 to 100 scale
In short: as §1

[3] = Rate 16 g/ha, 0 no injury, 100 complete control
[4] = Rate 32 g/ha, 0 no injury, 100 complete control
[5] = Rate 64 g/ha, 0 no injury, 100 complete control
[6] = Rate 125 g/ha, 0 no injury, 100 complete control
[7] = Rate 64 g/ha, Preemergence; 0 to 100 scale, 0 no injury, 100 complete control
[8] = Rate 125 g/ha, Preemergence; 0 to 100 scale, 0 no injury, 100 complete control

Structure (SMILES): C=CCn1c(=O)on(C(=O)N(c2ccc(F)cc2F)C(C)C)c1=O [Compound 151]
- Plant response rating, Purple nutsedge (purple nutsedge; [3]): 0
- Plant response rating, Purple nutsedge (purple nutsedge; [4]): 0
- Purple nutsedge plant response rating (purple nutsedge; [5]): 0
- Purple nutsedge plant response rating (purple nutsedge; [6]): 30
- Plant response rating, Purple nutsedge (purple nutsedge; Rate 250 g/ha): 65
- Plant response rating, Purple nutsedge (purple nutsedge; Rate 500 g/ha): 70
- Plant response rating, Green foxtail (Green foxtail [1]; Rate 250 g/ha): 100
- Plant response rating, Green foxtail (Green foxtail [1]; Rate 500 g/ha): 100
- Plant response rating, Alexandergrass (Alexandergrass; [3]): 40
- Plant response rating, Alexandergrass (Alexandergrass; [4]): 40
- Plant response rating, Alexandergrass (Alexandergrass; [5]): 98
- Plant response rating, Alexandergrass (Alexandergrass; [6]): 98
- Plant response rating, Alexandergrass (Alexandergrass; Rate 250 g/ha): 100
- Plant response rating, Alexandergrass (Alexandergrass; Rate 500 g/ha): 100
- Plant response rating, Sandbur (sandbur; [3]): 0
- Plant response rating, Sandbur (sandbur; [4]): 20
- Sandbur plant response rating (sandbur; [5]): 90
- Sandbur plant response rating (sandbur; [6]): 100
- Plant response rating, Sandbur (sandbur; Rate 250 g/ha): 100
- Plant response rating, Sandbur (sandbur; Rate 500 g/ha): 100
- Plant response rating, Itchgrass (itchgrass; [3]): 0
- Plant response rating, Itchgrass (itchgrass; [4]): 0
- Plant response rating, Itchgrass (itchgrass; [5]): 75
- Plant response rating, Itchgrass (itchgrass; [6]): 85
- Plant response rating, Itchgrass (itchgrass; Rate 250 g/ha): 100
- Plant response rating, Itchgrass (itchgrass; Rate 500 g/ha): 100
- Plant response rating, Green foxtail (Green foxtail [2]; Preemergence; Rate 16 g/ha; 0 to 100 scale, 0 no injury, 100 complete control): 100
- Plant response rating, Green foxtail (Green foxtail [2]; Preemergence; Rate 32 g/ha; 0 to 100 scale, 0 no injury, 100 complete control): 100
- Plant response rating, Green foxtail (Green foxtail [2]; Rate 16 g/ha; Preemergence; 0 to 100 scale, 0 no injury, 100 complete control): 100
- Plant response rating, Green foxtail (Green foxtail [2]; Rate 32 g/ha; Preemergence; 0 to 100 scale, 0 no injury, 100 complete control): 75
- Green foxtail plant response rating (Green foxtail [2]; [7]): 100
- Plant response rating, Green foxtail (Green foxtail [2]; [7]): 100
- Green foxtail plant response rating (Green foxtail [2]; [8]): 100
- Plant response rating, Green foxtail (Green foxtail [2]; [8]): 100
- Plant response rating, Green foxtail (Green foxtail [2]; Rate 250 g/ha; Preemergence; 0 to 100 scale): 100
- Plant response rating, Green foxtail (Green foxtail [2]; Rate 500 g/ha, Preemergence; 0 to 100 scale): 100
- Plant response rating Johnsongrass (Johnson grass; [3]): 0
- Plant response rating Johnsongrass (Johnson grass; [4]): 0
- Plant response rating Johnsongrass (Johnson grass; [5]): 40
- Plant response rating Johnsongrass (Johnson grass; [6]): 50
- Plant response rating Johnsongrass (Johnson grass; Rate 250 g/ha): 50
- Plant response rating Johnsongrass (Johnson grass; Rate 500 g/ha): 100
- Plant response rating, Goosegrass (goosegrass; [3]): 85
- Plant response rating, Goosegrass (goosegrass; [4]): 85
- Plant response rating, Goosegrass (goosegrass; [5]): 100
- Plant response rating, Goosegrass (goosegrass; [6]): 100
- Plant response rating, Goosegrass (goosegrass; Rate 250 g/ha): 100
- Plant response rating, Goosegrass (goosegrass; Rate 500 g/ha): 100
- Plant response rating, Surinam grass (surinam grass; [3]): 30
- Plant response rating, Surinam grass (surinam grass; [4]): 30
- Surinam grass plant response rating (surinam grass; [5]): 85
- Surinam grass plant response rating (surinam grass; [6]): 100
- Plant response rating, Surinam grass (surinam grass; Rate 250 g/ha): 100
- Plant response rating, Surinam grass (surinam grass; Rate 500 g/ha): 100
- Plant response rating, Tall Mallow (tall mallow; [3]): 0
- Plant response rating, Tall Mallow (tall mallow; [4]): 0
- Tall Mallow plant response rating (tall mallow; [5]): 0
- Tall Mallow plant response rating (tall mallow; [6]): 75
- Plant response rating, Tall Mallow (tall mallow; Rate 250 g/ha): 85
- Plant response rating, Tall Mallow (tall mallow; Rate 500 g/ha): 85
- Plant response rating, Dallisgrass (dallisgrass; [3]): 100
- Plant response rating, Dallisgrass (dallisgrass; [4]): 85
- Plant response rating, Dallisgrass (dallisgrass; [5]): 100
- Plant response rating, Dallisgrass (dallisgrass; [6]): 100
- Plant response rating, Dallisgrass (dallisgrass; Rate 250 g/ha): 100
- Plant response rating, Dallisgrass (dallisgrass; Rate 500 g/ha): 100
- Plant response rating, P. morninglory (pitted morningglory; [3]): 0
- Plant response rating, P. morninglory (pitted morningglory; [4]): 0
- Plant response rating, P. morninglory (pitted morningglory; [5]): 0
- Plant response rating, P. morninglory (pitted morningglory; [6]): 0
- Plant response rating, P. morninglory (pitted morningglory; Rate 250 g/ha): 0
- Plant response rating, P. morninglory (pitted morningglory; Rate 500 g/ha): 20
- Plant response rating Large crabgrass (large crabgrass; [3]): 98
- Plant response rating Large crabgrass (large crabgrass; [4]): 98
- Plant response rating Large crabgrass (large crabgrass; [5]): 100
- Plant response rating Large crabgrass (large crabgrass; [6]): 100
- Plant response rating Large crabgrass (large crabgrass; Rate 250 g/ha): 100
- Plant response rating Large crabgrass (large crabgrass; Rate 500 g/ha): 100
- Plant response rating, C. purslane (common pursiane; [3]): 0
- Plant response rating, C. purslane (common pursiane; [4]): 0
- Plant response rating, C. purslane (common pursiane; [5]): 0
- Plant response rating, C. purslane (common pursiane; [6]): 0
- Plant response rating, C. purslane (common pursiane; Rate 250 g/ha): 0
- Plant response rating, C. purslane (common pursiane; Rate 500 g/ha): 0
- Plant response rating, Com. groundsel (common groundsel; [3]): 0
- Plant response rating, Com. groundsel (common groundsel; [4]): 0
- Plant response rating, Com. groundsel (common groundsel; [5]): 0
- Plant response rating, Com. groundsel (common groundsel; [6]): 100
- Plant response rating, Com. groundsel (common groundsel; Rate 250 g/ha): 100
- Plant response rating, Com. groundsel (common groundsel; Rate 500 g/ha): 100
- Plant response rating, Spanishneedles (Spanishneedles; [3]): 0
- Plant response rating, Spanishneedles (Spanishneedles; [4]): 0
- Spanishneedles plant response rating (Spanishneedles; [5]): 0
- Spanishneedles plant response rating (Spanishneedles; [6]): 0
- Plant response rating, Spanishneedles (Spanishneedles; Rate 250 g/ha): 0
- Plant response rating, Spanishneedles (Spanishneedles; Rate 500 g/ha): 40
- Plant response rating, Guineagrass (guineagrass; [3]): 85
- Plant response rating, Guineagrass (guineagrass; [4]): 90
- Plant response rating, Guineagrass (guineagrass; [5]): 100
- Plant response rating, Guineagrass (guineagrass; [6]): 100
- Plant response rating, Guineagrass (guineagrass; Rate 250 g/ha): 100
- Plant response rating, Guineagrass (guineagrass; Rate 500 g/ha): 100
